The source of these data is article PMC9328652, “A novel class of fast‐acting antimalarial agents: Substituted 15‐membered azalides” (British Journal of Pharmacology, 2020).

Like-named read-outs stand apart in the source and are kept apart here.

Series [1] deals with Plasmodium falciparum W2 (chloroquine/pyrimethamine resistant). On the set-up: method as in Pesic et al. ([2012]). To be noted: 72 h of incubation; ref Pesic et al. ([2012]); cited from earlier work.
Series [2] shares this test system. The series is described as follows: [3H]hypoxanthine incorporation antimalarial assay, strain W2. Particulars: W2, 72 h, read-out: Plasmodium falciparum IC50 W2. The series is classed as cell-based. Here is the method:
The activity of the test compounds against P. falciparum in vitro was determined using the tritiated hypoxanthine incorporation assay of Desjardins et al. and additionally modified by Milhous and Chulay (Chulay, Haynes, & Diggs, [1983]; Milhous, Weatherly, Bowdre, & Desjardins, [1985]).
Compounds were dissolved in DMSO and subsequently diluted in the culture medium (RPMI 1640) supplemented with 10% v/v human plasma. Serial 1:2 drug dilutions were prepared in triplicate in microtitre plates. Culture medium supplemented with 10% v/v human plasma and type A Rhesus positive human erythrocytes infected with P. falciparum strains was added to yield a haematocrit of 3% and a parasitaemia of 0.25–0.55%. The plates were incubated at 37°C in a modular incubator flushed with a mixture of 5% oxygen, 3% carbon dioxide, and 92% nitrogen for 48 h, and then [^3H]hypoxanthine was added to give a final concentration of 12.5–16 μCi·ml^−1. After incubation for additional 24 h, particulate matter was harvested on fibreglass strips and hypoxanthine incorporation determined by scintillation spectrophotometry. […] Delayed death experiments were performed by this standard method but extending the incubation time with the drug up to 96 h.

In series [3] the test system is normal human lung fibroblasts (NHLF). The series is described as follows: Accumulation and retention in human primary cells, NHLF. To be noted: mean (SD). It counts as in vitro ADME. Here is the method: (§1) Accumulation and retention in human primary cells was determined as described in detail previously (Stepanic et al., [2011]). Briefly, normal human bronchial epithelial cells (NHBE, CC‐2541, Lonza), normal human lung fibroblasts (NHLF, CC‐2512, Lonza), and bronchial smooth muscle cells (BSMC, CC‐2576, Lonza) were cultivated according to the protocols of the suppliers. Human polymorphonuclear cells (PMN) and monocytes from healthy volunteers were isolated from buffy coats. Monocytes were isolated by negative selection on magnetic separator. Monocyte‐derived macrophages (MDM) were obtained by cultivating monocytes with 5 ng·ml^−1 rhGMCSF for 10 days. To determine compound accumulation cells were incubated with 3–10 μM of compounds in their corresponding culture medium for 3 h at 37°C in 5% CO2, washed, and lysed. To measure cellular retention of compounds, after being washed, drug‐loaded cells were incubated in fresh medium for 3 h, washed, and lysed. Compound concentrations were determined by HPLC–MS/MS analysis and expressed as % of azithromycin measurements.

Series [4] concerns panel of five bacterial strains. The series is described as follows: Antibacterial screen, summary over panel of five bacterial strains. The series is classed as cell-based. Here is the method: Antibacterial activity of compounds was determined by a standard broth microdilution method (Clinical Laboratory Standard Institute CLSI, [2009]), except that for Streptococcus strains lysed blood was substituted with 5% horse serum in the testing medium. Azithromycin and chloroquine were used as controls. The activities are expressed as minimum inhibitory concentrations (MICs) in units of μg·ml^−1. The compounds have been tested in at least two and up to five independent experiments generating same or similar results (a range of one to two dilutions between tests was considered acceptable which is in accordance to CLSI acceptable quality control ranges). The organisms tested represented macrolide sensitive Gram‐positive pathogens that are mainly targeted by macrolide antibiotics. Tested streptococci were clinical isolates Streptococcus pneumoniae SP030 and Streptococcus pyogenes 3565 from internal strain collection, and other strains were obtained from ATCC bioresource centre, Staphylococcus aureus ATCC13709, Haemophilus influenzae ATCC49247, and Moraxella catarrhalis ATCC23246. Double dilutions of tested compounds were prepared using TECAN Genesis 150. Bacteria were grown on appropriate agar plates (Becton Dickinson, USA)—Columbia agar with 5% sheep blood for streptococci and M. catarrhalis, Mueller‐Hinton chocolate agar for H. influenzae , and Mueller‐Hinton agar for staphylococci.

Series [5] can be described thus: Pharmacokinetic studies in rats. Particulars: Rat; for half-life / clearance / Vd / bioavailability: male, Sprague-Dawley, whole blood; for half-life: intravenous; for clearance / Vd: iv; for clearance: blood; for Vd: read-out: Vss; for bioavailability: po. It counts as in vivo, Sprague–Dawley rats. Here is the method: For the in vivo pharmacokinetic study, compound 1 was dosed i.v. at 5 mg·kg^−1 (5 ml·kg^−1 dosing volume) and p.o. at a dose of 25 mg·kg^−1 (10 ml·kg^−1) to male Sprague–Dawley rats (Charles River, France), weighing ~350 g. Compounds 2 and 3 were dosed i.v. at 2 mg·kg^−1 (5 ml·kg^−1 dosing volume) and p.o. at a dose of 10 mg·kg^−1 (10 ml·kg^−1). Rats were fasted for 6–12 h (overnight fasting) prior oral administration. For serial blood sampling, rats (n = 3) dosed with an i.v. bolus of compound had blood collected at the following time points after dosing: 5, 10, 20 40, 60, 120, 240, 480, 1,440, and 1,800 min. Rats (n = 3) dosed orally had blood collected at the following time points after dosing: 15, 30, 60, 120, 240, 360, 480, 1,440, and 1,800 min.
Dosing solutions were prepared in 100% saline both for i.v. and p.o. After both routes of administration, blood samples were collected from the tail vein up to 30 h, haemolysed, and frozen until analysis. […] Subsequently, samples were assayed as described for mouse PK.

Series [6] concerns normal human bronchial epithelium (NHBE). The series is described as follows: Accumulation and retention in human primary cells, NHBE. The series is classed as in vitro ADME. To be noted: mean (SD). Here is the method:
as §1

Consider `CC[C@H]1OC(=O)[C@H](C)[C@@H](O[C@H]2C[C@@](C)(OC)[C@@H](O)[C@H](C)O2)[C@H](C)[C@@H](O[C@@H]2O[C@H](C)C[C@H](N(C)C)[C@H]2O)[C@](C)(O)C[C@@H](C)CN(C)[C@H](C)[C@@H](O)[C@]1(C)O` [Azithromycin, reference compound], for which the concentration for half-maximal inhibition (IC50) in series [1] was 2680 nM.

As to `CC[C@H]1OC(=O)[C@H](C)[C@@H](O[C@H]2C[C@@](C)(OC)[C@@H](O)[C@H](C)O2)[C@H](C)[C@@H](O[C@@H]2O[C@H](C)C[C@H](N(C)C)[C@H]2O)[C@](C)(O)C[C@@H](C)CN(CCCNc2ccnc3cc(Cl)ccc23)[C@H](C)[C@@H](O)[C@]1(C)O` [Compound 1], the IC50 in series [2] was determined as 27 nM. The accumulation in series [3] (3 h) was 100 (11) % azithromycin; in series [6] (3 h), 162 (3) % azithromycin. Also, the retention in series [3] (3 h in fresh medium) was 85 (3) % azithromycin; in series [6] (3 h in fresh medium), 123 (11) % azithromycin. Besides, in series [4], the “antibacterial activity (in words)” value was “inhibited the growth of whole cell bacteria”. Also, the DNAUCPO in series [5] (p.o. 25 mg·kg^−1, mean (SD)) is recorded as 169 (21) ng*h·ml^−1·mg^−1·kg^−1. Also, the half-life in series [5] (i.v. 5 mg·kg^−1 / p.o. 25 mg·kg^−1, mean (SD)) is 23.3 h. In series [5] (i.v. 5 mg·kg^−1, mean (SD)), this compound came in with a clearance of 2.4 mL/min/kg. Moreover, the Vd in series [5] (i.v. 5 mg·kg^−1, mean (SD)) is 3.8 L/kg. This compound registered a bioavailability in series [5] (i.v. 5 mg·kg^−1, p.o. 25 mg·kg^−1, mean (SD)) of 2.3%.

With `CC[C@H]1OC(=O)[C@H](C)[C@@H](O)[C@H](C)[C@@H](O[C@@H]2O[C@H](C)C[C@H](N(C)C)[C@H]2OCCCNc2ccnc3ccccc23)[C@](C)(O)C[C@@H](C)CN[C@H](C)[C@@H](O)[C@]1(C)O` [Compound 3], the IC50 in series [2] is 27 nM. Further, in series [4], the “antibacterial activity (in words)” value is listed as “no antibacterial activity”. The DNAUCPO in series [5] (oral gavage 10 mg·kg^−1, mean (SD)) is on record as 36.2 (29) ng*h·ml^−1·mg^−1·kg^−1. This compound also showed a half-life in series [5] (i.v. 2 mg·kg^−1 / p.o. 10 mg·kg^−1, mean (SD)) of 18.8 h. Besides, in series [5] (i.v. 2 mg·kg^−1, mean (SD)), the clearance was found to be 4 mL/min/kg and the Vd was 6.3 L/kg. Also, in series [5] (i.v. 2 mg·kg^−1, p.o. 10 mg·kg^−1, mean (SD)), the bioavailability amounted to 1%.

As usually defined, the IC50 is the concentration that gives 50% inhibition. As usually defined, the half-life is the time in which the quantity being followed falls by half. In general, clearance refers to the rate of elimination divided by the concentration. In general, bioavailability refers to the share of a dose that reaches the circulation, judged against a reference dose that is usually intravenous. A lower bioavailability goes with little systemic uptake.
